Results reported in PubChem BioAssay AID248 (DTP/NCI, 2004).
Several values for one entry are separate records, joined by “and”; a condition that tells them apart may be missing. Equal entries are not always repeated. Inconclusive results and toxic doses are left out.

System: L1210 leukemia ip in BDF1 mice, survival T/C
Assay: NCI In Vivo Anticancer Drug Screen. Data for tumor model L1210 Leukemia (intraperitoneal) in B6D2F1 (BDF1) mice
Conditions: endpoint: mean survival time, higher = longer survival
Method in brief: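 Each compound was tested against a transplantable tumor grown in mice. The endpoint was survival, with treated animals benchmarked against vehicle controls as a simple ratio.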

[1] = dose: 100.0 mg/kg/injection, schedule: Q04DX002 (ip), vehicle: Klucel (hydroxypropylcellulose) (HPC)
[2] = dose: 50.0 mg/kg/injection, schedule: Q01DX001 (ip), vehicle: carboxymethylcellulose (CMC)
[3] = dose: 100.0 mg/kg/injection, schedule: Q01DX001 (ip), vehicle: carboxymethylcellulose (CMC)
[4] = dose: 200.0 mg/kg/injection, schedule: Q01DX001 (ip), vehicle: carboxymethylcellulose (CMC)
[5] = dose: 100.0 mg/kg/injection, schedule: Q04DX003 (ip), vehicle: saline with Tween-80
[6] = dose: 200.0 mg/kg/injection, schedule: Q04DX003 (ip), vehicle: saline with Tween-80
[7] = dose: 400.0 mg/kg/injection, schedule: Q04DX003 (ip), vehicle: saline with Tween-80
[8] = dose: 100.0 mg/kg/injection, schedule: Q01DX001 (ip), vehicle: saline
[9] = dose: 12.5 mg/kg/injection, schedule: Q01DX009 (ip), vehicle: saline with Tween-80
[10] = dose: 25.0 mg/kg/injection, schedule: Q01DX009 (ip), vehicle: saline with Tween-80
[11] = dose: 100.0 mg/kg/injection, schedule: Q01DX009 (ip), vehicle: Klucel (hydroxypropylcellulose) (HPC)
[12] = dose: 200.0 mg/kg/injection, schedule: Q01DX009 (ip), vehicle: Klucel (hydroxypropylcellulose) (HPC)
[13] = dose: 100.0 mg/kg/injection, schedule: Q04DX003 (ip), vehicle: Klucel (hydroxypropylcellulose) (HPC)
[14] = dose: 200.0 mg/kg/injection, schedule: Q04DX003 (ip), vehicle: Klucel (hydroxypropylcellulose) (HPC)
[15] = dose: 400.0 mg/kg/injection, schedule: Q01DX009 (ip), vehicle: Klucel (hydroxypropylcellulose) (HPC)
[16] = dose: 400.0 mg/kg/injection, schedule: Q04DX003 (ip), vehicle: Klucel (hydroxypropylcellulose) (HPC)
[17] = dose: 400.0 mg/kg/injection, schedule: Q01DX001 (ip), vehicle: carboxymethylcellulose (CMC)
[18] = dose: 100.0 mg/kg/injection, schedule: Q04DX003 (ip), vehicle: other
[19] = dose: 200.0 mg/kg/injection, schedule: Q04DX003 (ip), vehicle: other
[20] = dose: 400.0 mg/kg/injection, schedule: Q04DX003 (ip), vehicle: other

O=C(c1ccccc1)c1ccc(O)c([N+](=O)[O-])c1
T/C (dose: 25.0 mg/kg/injection, schedule: Q04DX002 (ip), vehicle: Klucel (hydroxypropylcellulose) (HPC)): 113 % of control
T/C (dose: 50.0 mg/kg/injection, schedule: Q04DX002 (ip), vehicle: Klucel (hydroxypropylcellulose) (HPC)): 100 % of control
T/C [1]: 90 % of control

Cc1cccc(C2=CCCCC2)c1
T/C [2]: 96 % of control
T/C [3]: 102 % of control
T/C [4]: 96 % of control

O=c1[nH]cc(S)c(=O)[nH]1
T/C [3]: 96 % of control
T/C (dose: 100.0 mg/kg/injection, schedule: Q01DX015 (ip), vehicle: carboxymethylcellulose (CMC)): 102 % of control
T/C [4]: 100 % of control

O=C(O)C1C2CCC1C2 (configuration not stated)
T/C [5]: 98 % of control
T/C [6]: 101 % of control
T/C [7]: 95 % of control

CN=[N+]([O-])c1ccccc1
T/C [8]: 100 % of control
T/C (dose: 200.0 mg/kg/injection, schedule: Q01DX001 (ip), vehicle: saline): 100 % of control
T/C (dose: 400.0 mg/kg/injection, schedule: Q01DX001 (ip), vehicle: saline): 97 % of control

O=C(Nc1ccc(Cl)c(C(F)(F)F)c1)Oc1ccccn1
T/C [9]: 101 % of control
T/C [10]: 99 % of control
T/C (dose: 50.0 mg/kg/injection, schedule: Q01DX009 (ip), vehicle: saline with Tween-80): 92 % of control
T/C (dose: 100.0 mg/kg/injection, schedule: Q01DX009 (ip), vehicle: saline with Tween-80): 93 % of control

COC(=O)c1ccccc1NC(=O)Nc1cc([N+](=O)[O-])ccc1OC
T/C (dose: 50.0 mg/kg/injection, schedule: Q01DX009 (ip), vehicle: Klucel (hydroxypropylcellulose) (HPC)): 90 % of control
T/C [11]: 97 % of control
T/C [12]: 108 % of control

Cc1cc(Cl)ccc1OC(=O)Nc1c(C)cccc1C
T/C [11]: 101 % of control
T/C [13]: 98 % of control
T/C [12]: 101 % of control
T/C [14]: 103 % of control
T/C [15]: 89 % of control
T/C [16]: 101 % of control

C[n+]1cccc(C(=O)N/N=C/c2ccccc2)c1
T/C (dose: 100.0 mg/kg/injection, schedule: Q01DX001 (ip), vehicle: saline with Tween-80): 96 % of control
T/C (dose: 200.0 mg/kg/injection, schedule: Q01DX001 (ip), vehicle: saline with Tween-80): 96 % of control
T/C (dose: 400.0 mg/kg/injection, schedule: Q01DX001 (ip), vehicle: saline with Tween-80): 96 % of control

Oc1c(Br)cc(Br)cc1/C=N/N=C/c1cc(Br)cc(Br)c1O
T/C (dose: 100.0 mg/kg/injection, schedule: Q01DX001 (ip), vehicle: Klucel (hydroxypropylcellulose) (HPC)): 90 % of control
T/C [11]: 98 % of control
T/C [13]: 90 % of control
T/C (dose: 200.0 mg/kg/injection, schedule: Q01DX001 (ip), vehicle: Klucel (hydroxypropylcellulose) (HPC)): 90 % of control
T/C [14]: 97 % of control
T/C (dose: 400.0 mg/kg/injection, schedule: Q01DX001 (ip), vehicle: Klucel (hydroxypropylcellulose) (HPC)): 90 % of control
T/C [15]: 88 % of control
T/C [16]: 94 % of control

COc1cc2c(cc1OC)C1C(C)c3ccc(OC)c(OC)c3CN1CC2 (configuration not stated)
T/C [3]: 100 % of control
T/C [4]: 100 % of control
T/C [17]: 96 % of control

COC1=C(NCc2ccccc2)C(=O)C(OC)=C(NCc2ccccc2)C1=O
T/C [2]: 113 % of control
T/C [3]: 101 % of control
T/C [11]: 92 % of control
T/C [13]: 90 % of control
T/C [4]: 107 % of control
T/C [12]: 95 % of control
T/C [14]: 93 % of control
T/C [17]: 107 % of control
T/C [15]: 92 % of control
T/C [16]: 97 % of control

NCCCCCCNC(=O)CCC(=O)NCCCCCCN
T/C (dose: 8.0 mg/kg/injection, schedule: Q01DX Z (ip), vehicle: water): 86 % of control
T/C (dose: 16.0 mg/kg/injection, schedule: Q01DX Z (ip), vehicle: water): 91 % of control
T/C (dose: 32.0 mg/kg/injection, schedule: Q01DX Z (ip), vehicle: water): 88 % of control
T/C (dose: 64.0 mg/kg/injection, schedule: Q01DX Z (ip), vehicle: saline): 109 % of control
T/C (dose: 64.0 mg/kg/injection, schedule: Q01DX Z (ip), vehicle: water): 91 % of control
T/C (dose: 128.0 mg/kg/injection, schedule: Q01DX Z (ip), vehicle: saline): 88 % of control

[O-][n+]1ccc(N2CCOCC2)cc1
T/C [8]: 100 % of control

COc1c(Br)cc(N=Cc2ccc(N(CCCl)CCCl)cc2C)cc1Br
T/C [3]: 98 % of control
T/C [4]: 107 % of control
T/C [17]: 110 % of control

O=C(O)c1ccc(CNc2ccc(C(=O)CCl)cc2)cc1
T/C [3]: 102 % of control
T/C [4]: 102 % of control
T/C [17]: 118 % of control

COc1cc(/C=C2\SC(=O)NC2=O)ccc1O
T/C [9]: 106 % of control
T/C [10]: 101 % of control
T/C (dose: 150.0 mg/kg/injection, schedule: Q01DX009 (ip), vehicle: saline with Tween-80): 101 % of control

C1COC2(OC1)OCCCO2
T/C [1]: 108 % of control
T/C (dose: 200.0 mg/kg/injection, schedule: Q04DX002 (ip), vehicle: Klucel (hydroxypropylcellulose) (HPC)): 105 % of control
T/C (dose: 400.0 mg/kg/injection, schedule: Q04DX002 (ip), vehicle: Klucel (hydroxypropylcellulose) (HPC)): 105 % of control

O=C(N/N=C/c1ccccc1)c1ccc(Cl)c(Cl)c1
T/C [18]: 100 % of control
T/C [19]: 92 % of control
T/C [20]: 89 % of control

Cc1cc(N=Nc2ccccc2C)ccc1N
T/C (dose: 3.0 mg/kg/injection, schedule: Q01DX009 (ip), vehicle: DMSO): 97 % of control
T/C (dose: 6.0 mg/kg/injection, schedule: Q01DX009 (ip), vehicle: DMSO): 90 % of control
T/C (dose: 12.0 mg/kg/injection, schedule: Q01DX009 (ip), vehicle: DMSO): 98 % of control
T/C (dose: 12.5 mg/kg/injection, schedule: Q01DX009 (ip), vehicle: DMSO): 95 % of control
T/C (dose: 12.5 mg/kg/injection, schedule: Q04DX003 (ip), vehicle: DMSO): 100 % of control
T/C (dose: 25.0 mg/kg/injection, schedule: Q04DX003 (ip), vehicle: DMSO): 98 % of control
T/C (dose: 50.0 mg/kg/injection, schedule: Q04DX003 (ip), vehicle: DMSO): 96 % of control

N#CC1=C(N)CCP(c2ccccc2)C1 (configuration not stated)
T/C [5]: 94 % of control
T/C [6]: 97 % of control
T/C [7]: 100 % of control

CN(Cc1cnc2nc(N)nc(N)c2n1)c1ccc(C(=O)NC(CCC(=O)O)C(=O)O)cc1[N+](=O)[O-] (configuration not stated)
T/C (dose: 2.5 mg/kg/injection, schedule: Q01DX009 (ip), vehicle: sodium bicarbonate): 155 % of control
T/C (dose: 5.0 mg/kg/injection, schedule: Q01DX009 (ip), vehicle: sodium bicarbonate): 112 % of control
T/C (dose: 10.0 mg/kg/injection, schedule: Q01DX009 (ip), vehicle: sodium bicarbonate): 90 % of control

CCCCCCCc1c(C)[nH]c2ccccc2c1=O
T/C [11]: 86 % of control
T/C [18]: 98 % of control
T/C [19]: 94 % of control
T/C [20]: 91 % of control

O=C(O)C1CCCCC1C(=O)NCc1ccco1 (configuration not stated)
T/C [11]: 95 % of control
T/C [12]: 96 % of control
T/C [15]: 88 % of control

C=CC12CN(C)C3C4COC(CC41)C1(C(=O)Nc4ccccc41)C32 (configuration not stated)
T/C (dose: 75.0 mg/kg/injection, schedule: Q01DX001 (ip), vehicle: other): 102 % of control

CC[P+](CC)(CC)c1ccccc1
T/C (dose: 6.0 mg/kg/injection, schedule: Q04DX003 (ip), vehicle: saline): 103 % of control
T/C (dose: 6.25 mg/kg/injection, schedule: Q01DX009 (ip), vehicle: saline): 100 % of control
T/C (dose: 12.0 mg/kg/injection, schedule: Q04DX003 (ip), vehicle: saline): 107 % of control
T/C (dose: 12.5 mg/kg/injection, schedule: Q01DX009 (ip), vehicle: saline): 100 % of control
T/C (dose: 25.0 mg/kg/injection, schedule: Q01DX009 (ip), vehicle: Klucel (hydroxypropylcellulose) (HPC)): 100 % of control
T/C (dose: 25.0 mg/kg/injection, schedule: Q01DX009 (ip), vehicle: saline): 110 % of control
T/C (dose: 25.0 mg/kg/injection, schedule: Q04DX003 (ip), vehicle: saline): 96 % of control and 92 % of control
